Measurements taken from publication PMC8036727, “In Vitro Anticancer Potential of Jasione montana and Its Main Components against Human Amelanotic Melanoma Cells” (International Journal of Molecular Sciences, 2021).
Values after ≈ are worked out from the molar mass of the structure shown. Structures can show the parent of a compound that is named as a salt.

What was measured:
[1] = test system: caspase-3 in C32 melanoma cells; assay: FLICA Caspase-3/7 assay, flow cytometry; format: cell-based, human; details: 25 μg/mL, 24 h; untreated control 4.2 ± 1.3%
Protocol: (§1) The human amelanotic melanoma cell line C32 (CRL-1585) and a normal human fibroblast cell line (PCS-201-012) were cultured in DMEM. DMEM was blended with 10% FBS, 10 µg/mL streptomycin, and […] penicillin. The cells were cultured in 5% CO2 and fully humidified at 37 °C. All tested compounds were used at a final DMSO concentration of not more than 0.5% (v/v). Cells cultured in drug-free DMEM were used as controls, and cells with the addition of only DMSO were used as solvent-controls; VLB was used as a positive control. The JM4 fraction was analyzed at the following concentrations: 25, 50 and 100 µg/mL and compound 22 and VLB were analyzed at 25 µg/mL. For the cytotoxicity assay, all extracts and compounds were tested at the following concentrations: 10, 25, 50, 100, 200, and 300 µg/mL.
Determination of the caspase-3, caspase-8, caspase-9, and caspase-10 activity were carried out by the following kits: FLICA Caspase-3/7 Assay Kit, FLICA Caspase-8 Assay Kit, FLICA Caspase-9 Assay Kit, and FLICA Caspase-10 Assay Kit using a BD FACSCanto II flow cytometer. C32 cells were incubated with JM4, compound 22 and VLB for 24 h, washed twice with PBS, resuspended in buffer supplemented with […] of FLICA reagent, and incubated. […] The results were analyzed with FACSDiva software.

C32 melanoma cells [2] = assay: Annexin V-FITC/PI binding apoptosis assay, flow cytometry; format: cell-based, human; details: 25 μg/mL, 24 h; for apoptotic cells: untreated control 7.3 ± 1.3%
Protocol: During programmed cell death, annexin V has a high affinity for phosphatidylserine (PS) when it is exposed to the extracellular environment. […] The assay allows differentiability between viable cells (annexin V–/PI–) and early (annexin V–/PI+) and late (annexin V+/PI+) apoptotic cells, as well as necrotic cells (annexin V–/PI+).
The human amelanotic melanoma cell line C32 (CRL-1585) and a normal human fibroblast cell line (PCS-201-012) were cultured in DMEM. DMEM was blended with 10% FBS, 10 µg/mL streptomycin, and 10 units/mol penicillin. The cells were cultured in 5% CO2 and fully humidified at 37 °C. All tested compounds were used at a final DMSO concentration of not more than 0.5% (v/v). Cells cultured in drug-free DMEM were used as controls, and cells with the addition of only DMSO were used as solvent-controls; VLB was used as a positive control.
Characterization of the mode of apoptosis induced by JM4, 22 and VLB was performed in C32 cells via flow cytometry using a FITC Annexin V Apoptosis Detection Kit II. All stages of programmed cell death could be identified by annexin V bound with high affinity to PS. PI is a standard flow cytometric viability explorer that stains cells that interfere with the cell membrane, and it can be used to distinguish necrotic cells from dead cells. After the C32 cells were incubated for 24 h with various concentrations of JM4, 22 and VLB, they were trypsinized and resuspended in binding buffer. After that, 5 µL of annexin V-FITC and 5 µL of PI were added and maintained for 15 min in the dark at room temperature. The results were analyzed using FACSDiva software.

[3] = test system: human amelanotic melanoma cell line C32 (CRL-1585); assay: Fixable viability stain (FVS520) cytotoxicity assay, flow cytometry; format: cell-based; details: C32 cells, 24 h, 10–300 μg/mL, mean ± SD
Protocol: as §1
This analysis was performed to estimate the level of viable cells after treatment with JM1–JM6, compounds 9, 12, 22 and VLB at concentrations ranging from 10 to 300 µg/mL. Cytotoxicity was evaluated by FVS520 via a flow cytometer (BD FACSCanto II flow cytometer, San Jose, CA, USA). In contrast to nonpermeable live cells, the permeable membranes of necrotic cells allow for the intracellular diffusion of FVS520 and the covalent binding of high concentrations of amines. Thus, necrotic cells contained a higher level of FVS520 and, consequently, increased fluorescence intensity than viable cells. After 24 h of incubation, C32 cells and fibroblasts were washed with PBS, trypsinized and resuspended in DMEM. The supernatant was removed, and 0.5 mL of Stain Buffer with the addition of 1 µL of FVS520 was added to each sample, which was vortexed immediately and kept for 10–15 min in the dark at room temperature. After incubation and the addition of 2 mL of PBS, the supernatant was removed, the cells were resuspended in 300 µL of PBS and then immediately subjected to analysis. The results were analyzed based on FACSDiva software (BD Biosciences Systems, San Jose, CA, USA). Based on the results of the cytotoxicity analysis, further research in this project focused on the determination of the full anticancer mechanism of the most promising fraction JM4 and compound 22.

C32 melanoma cells [4] = assay: Mitochondrial membrane potential (MMP), JC-1 MitoScreen, flow cytometry; format: cell-based, human; details: 25 μg/mL, 24 h; untreated control 5.2 ± 0.1%
Protocol: The human amelanotic melanoma cell line C32 (CRL-1585) and a normal human fibroblast cell line (PCS-201-012) were cultured in DMEM. […] Cells cultured in drug-free DMEM were used as controls, and cells with the addition of only DMSO were used as solvent-controls; VLB was used as a positive control. The JM4 fraction was analyzed at the following concentrations: 25, 50 and 100 µg/mL and compound 22 and VLB were analyzed at 25 µg/mL. For the cytotoxicity assay, all extracts and compounds were tested at the following concentrations: 10, 25, 50, 100, 200, and 300 µg/mL. […] After incubation, the cells were flushed again, resuspended in PBS, and immediately subjected to BD FACSCanto II flow cytometry analysis. The results were analyzed using FACSDiva.

C32 melanoma cells [5] = assay: Autophagy Assay, Red, flow cytometry; format: cell-based, human; details: 25 μg/mL, 24 h
Protocol: as §1
An autophagy assay was carried out to detect the impact of JM4, compound 22, and VLB on the autophagy process of C32 cells via flow cytometry using an Autophagy Assay, Red kit. The probe is a cell-permeable aliphatic molecule that brightly fluoresces after unjumbling […] and autolysosomes into lipid membranes. […] The results were analyzed with FACSDiva software.

[6] = test system: caspase-8 in C32 melanoma cells; assay: FLICA Caspase-8 assay, flow cytometry; format: cell-based, human; details: 25 μg/mL, 24 h
Protocol: (§2) The human amelanotic melanoma cell line C32 (CRL-1585) and a normal human fibroblast cell line (PCS-201-012) were cultured in DMEM. […] Cells cultured in drug-free DMEM were used as controls, and cells with the addition of only DMSO were used as solvent-controls; VLB was used as a positive control. The JM4 fraction was analyzed at the following concentrations: 25, 50 and 100 µg/mL and compound 22 and VLB were analyzed at 25 µg/mL. For the cytotoxicity assay, all extracts and compounds were tested at the following concentrations: 10, 25, 50, 100, 200, and 300 µg/mL. Determination of the caspase-3, caspase-8, caspase-9, and caspase-10 activity were carried out by the following kits: FLICA Caspase-3/7 Assay Kit, FLICA Caspase-8 Assay Kit, FLICA Caspase-9 Assay Kit, and FLICA Caspase-10 Assay Kit using a BD FACSCanto II flow cytometer. […] After 1 h, the cells were flushed with apoptosis wash buffer and resuspended in […] of the same reagent with […] PI. The procedure of determining the activity of each caspase was carried out analogously. The results were analyzed with FACSDiva software.

[7] = test system: normal human fibroblast cell line (PCS-201-012); assay: Fixable viability stain (FVS520) cytotoxicity assay, flow cytometry; format: cell-based; details: normal human fibroblasts, 24 h, 10–300 μg/mL
Protocol: The human amelanotic melanoma cell line C32 (CRL-1585) and a normal human fibroblast cell line (PCS-201-012) were cultured in DMEM. […] Cells cultured in drug-free DMEM were used as controls, and cells with the addition of only DMSO were used as solvent-controls; VLB was used as a positive control. The JM4 fraction was analyzed at the following concentrations: 25, 50 and 100 µg/mL and compound 22 and VLB were analyzed at 25 µg/mL. For the cytotoxicity assay, all extracts and compounds were tested at the following concentrations: 10, 25, 50, 100, 200, and 300 µg/mL. […] Cytotoxicity was evaluated by FVS520 via a flow cytometer (BD FACSCanto II flow cytometer, San Jose, CA, USA). In contrast to nonpermeable live cells, the permeable membranes of necrotic cells allow for the intracellular diffusion of FVS520 and the covalent binding of high concentrations of amines. Thus, necrotic cells contained a higher level of FVS520 and, consequently, increased fluorescence intensity than viable cells. After 24 h of incubation, C32 cells and fibroblasts were washed with PBS, trypsinized and resuspended in DMEM. […] After incubation and the addition of 2 mL of PBS, the supernatant was removed, the cells were resuspended in 300 µL of PBS and then immediately subjected to analysis. The results were analyzed based on FACSDiva software (BD Biosciences Systems, San Jose, CA, USA). […]

C32 melanoma cells [8] = assay: Cell cycle analysis by PI staining, flow cytometry; format: cell-based, human; details: 25 μg/mL, 24 h
Protocol: The human amelanotic melanoma cell line C32 (CRL-1585) and a normal human fibroblast cell line (PCS-201-012) were cultured in DMEM. […] Cells cultured in drug-free DMEM were used as controls, and cells with the addition of only DMSO were used as solvent-controls; VLB was used as a positive control. The JM4 fraction was analyzed at the following concentrations: 25, 50 and 100 µg/mL and compound 22 and VLB were analyzed at 25 µg/mL. For the cytotoxicity assay, all extracts and compounds were tested at the following concentrations: 10, 25, 50, 100, 200, and 300 µg/mL. The allocation of cell cycle stage was analyzed on a FACSCanto II flow cytometer. C32 cells were cured with JM4, 22 and VLB for 24 h of incubation. Thereafter, the cells were harvested and adjusted with 1 mL of 70% EtOH and maintained at −20 °C for 24 h. Next, the cells were washed with PBS, treated with 50 µg/mL DNase-free RNase A solution for 5 min at room temperature, stained with 100 µg/mL PI for 30 min at 37 °C, and submitted to flow cytometry analysis. The results were analyzed with FACSDiva software.

[9] = test system: caspase-9 in C32 melanoma cells; assay: FLICA Caspase-9 assay, flow cytometry; format: cell-based, human; details: 25 μg/mL, 24 h
Protocol: as §2

[10] = test system: caspase-10 in C32 melanoma cells; assay: FLICA Caspase-10 assay, flow cytometry; format: cell-based, human; details: 25 μg/mL, 24 h
Protocol: as §2

`CC[C@]1(O)C[C@@H]2CN(CCc3c([nH]c4ccccc34)[C@@](C(=O)OC)(c3cc4c(cc3OC)N(C)[C@H]3[C@@](O)(C(=O)OC)[C@H](OC(C)=O)[C@]5(CC)C=CCN6CC[C@]43[C@@H]65)C2)C1` [VLB, vinblastine sulfate] was tested, and the “cells with active caspase-3” value [1] was 23.4 ± 3.5%, the necrotic cells (C32 melanoma cells [2]) was 4.2 ± 1.0% and the apoptotic cells (C32 melanoma cells [2]) was 27.4 ± 1.0%. The IC50 [3] was 148 ± 7.7 µg/mL, the “cells with a reduced MMP” value (C32 melanoma cells [4]) was 34.1 ± 3.0% and the autophagic cells (C32 melanoma cells [5]; untreated control 4.8 ± 0.8%) was 76.7 ± 0.5%. It also gave a nonautophagic cells (C32 melanoma cells [5]; untreated control 94.5 ± 1.0%) of 22.4 ± 0.6%.

In the case of `O=c1cc(-c2ccc(O)c(O)c2)oc2cc(O)cc(O)c12` [Compound 22, luteolin], the “cells with active caspase-8” value [6] is reported as 20.2 ± 1.5%, the apoptotic cells (C32 melanoma cells [2]) is reported as 29.2 ± 3.0% and the IC50 [3] is reported as 95.1 ± 7.2 µg/mL (≈ 332 µM). The IC50 [7] was 194 ± 4.4 µg/mL (≈ 678 µM), the “percentage of C32 cells in G2/M phase” value (C32 melanoma cells [8]; untreated control 6.1 ± 0.6%) was 14.6 ± 1.5% and the “percentage of C32 cells in G1 phase” value (C32 melanoma cells [8]; untreated control 73.0 ± 0.9%) was 35.3 ± 3.0%. The “cells with active caspase-9” value [9] was 16.6 ± 0.8%, the “cells with a reduced MMP” value (C32 melanoma cells [4]) was 31.8 ± 0.7% and the “cells with active caspase-10” value [10] was 15.4 ± 0.7%.

With `O=c1cc(-c2ccc(O)c(O)c2)oc2cc(OC3OC(CO)C(O)C(O)C3O)cc(O)c12` [Compound 12, luteolin 7-O-β-D-glucoside] the IC50 [3] was > 300 µg/mL.

`O=c1cc(-c2ccc(O)c(O)c2)oc2cc(OC3OC(CO)C(O)C(O)C3OC3OCC(O)C(O)C3O)cc(O)c12` [Compound 9, luteolin 7-O-β-D-xylosyl-(1-2)-β-D-glucoside] was tested, and the IC50 [3] was > 300 µg/mL.
